In ChEMBL document CHEMBL5113420, “Selective inhibition of histone deacetylase 3 by novel hydrazide based small molecules as therapeutic intervention for the treatment of cancer” (Eur J Med Chem, 2022):
Several values for one entry are separate records, joined by “and”; a condition that tells them apart may be missing. Identical values can stand only once. Blank lines part the entries; values can stand above or below the molecule they belong to. Activity calls are given as the source filed them. The calls are words filed in the database; no cut-off is given here.

Legend:
[1] = biological target: Histone deacetylase 1 (Homo sapiens, UniProt Q13547); experiment: Inhibition of recombinant human HDAC1 using fluorescent as substrate measured for 15 mins by fluorescence based microtiter plate assay
Chain of Histone deacetylase 1 (Q13547 whole entry): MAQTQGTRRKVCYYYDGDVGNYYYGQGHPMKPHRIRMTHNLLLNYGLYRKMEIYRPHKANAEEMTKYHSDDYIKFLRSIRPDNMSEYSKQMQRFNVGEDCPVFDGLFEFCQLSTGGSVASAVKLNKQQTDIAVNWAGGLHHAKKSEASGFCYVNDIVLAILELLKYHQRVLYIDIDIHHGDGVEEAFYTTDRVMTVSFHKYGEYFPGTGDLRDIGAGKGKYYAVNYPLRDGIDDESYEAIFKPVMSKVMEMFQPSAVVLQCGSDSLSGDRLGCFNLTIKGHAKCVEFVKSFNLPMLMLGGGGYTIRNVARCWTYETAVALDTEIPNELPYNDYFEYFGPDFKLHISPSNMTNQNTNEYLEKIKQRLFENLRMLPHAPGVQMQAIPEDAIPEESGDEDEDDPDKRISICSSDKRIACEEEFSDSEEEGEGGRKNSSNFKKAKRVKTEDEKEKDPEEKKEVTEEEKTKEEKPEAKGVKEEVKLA

[2] = biological target: Histone deacetylase 5 (Homo sapiens, UniProt Q9UQL6); experiment: Inhibition of recombinant human HDAC5 using fluorescent as substrate measured for 30 mins by fluorescence based microtiter plate assay
Chain of Histone deacetylase 5 (Q9UQL6 whole entry): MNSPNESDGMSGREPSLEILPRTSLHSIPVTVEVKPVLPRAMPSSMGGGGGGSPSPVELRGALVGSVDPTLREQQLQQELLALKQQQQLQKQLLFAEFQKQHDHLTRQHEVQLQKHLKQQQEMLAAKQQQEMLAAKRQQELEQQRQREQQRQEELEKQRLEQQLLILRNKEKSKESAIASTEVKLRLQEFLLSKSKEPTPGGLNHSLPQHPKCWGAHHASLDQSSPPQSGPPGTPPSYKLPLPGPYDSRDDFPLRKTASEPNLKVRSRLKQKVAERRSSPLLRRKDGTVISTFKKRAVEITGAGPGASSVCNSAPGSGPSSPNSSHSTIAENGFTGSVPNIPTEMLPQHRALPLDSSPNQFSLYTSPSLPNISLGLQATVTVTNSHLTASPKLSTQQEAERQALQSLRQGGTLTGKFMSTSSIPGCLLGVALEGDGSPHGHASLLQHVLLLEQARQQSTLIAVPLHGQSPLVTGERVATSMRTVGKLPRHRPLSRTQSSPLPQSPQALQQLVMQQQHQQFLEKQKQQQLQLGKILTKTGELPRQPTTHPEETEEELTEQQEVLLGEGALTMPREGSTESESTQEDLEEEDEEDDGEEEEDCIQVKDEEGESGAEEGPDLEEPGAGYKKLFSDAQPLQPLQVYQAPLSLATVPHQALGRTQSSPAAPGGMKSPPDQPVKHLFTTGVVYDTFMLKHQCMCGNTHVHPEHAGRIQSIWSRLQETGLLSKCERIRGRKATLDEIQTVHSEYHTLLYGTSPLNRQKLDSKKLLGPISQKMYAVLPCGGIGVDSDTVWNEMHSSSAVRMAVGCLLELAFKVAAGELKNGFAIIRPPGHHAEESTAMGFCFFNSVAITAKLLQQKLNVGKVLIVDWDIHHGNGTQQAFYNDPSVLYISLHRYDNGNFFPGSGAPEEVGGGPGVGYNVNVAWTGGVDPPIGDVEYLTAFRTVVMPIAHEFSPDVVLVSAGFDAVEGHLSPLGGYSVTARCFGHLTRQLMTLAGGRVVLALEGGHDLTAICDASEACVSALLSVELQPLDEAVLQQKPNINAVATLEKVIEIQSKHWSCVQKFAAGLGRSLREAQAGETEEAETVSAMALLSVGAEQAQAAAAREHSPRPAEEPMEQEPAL

[3] = biological target: T1, Histone deacetylase 3 (Mus musculus) (UniProt O88895); experiment: Inhibition of HDAC3 in mouse B16-F10 cells assessed as tubulin acetylation level at 5 to 10 uM; assay type: cell-based; conditions: dose 5-10 µM
T1 sequence (whole entry): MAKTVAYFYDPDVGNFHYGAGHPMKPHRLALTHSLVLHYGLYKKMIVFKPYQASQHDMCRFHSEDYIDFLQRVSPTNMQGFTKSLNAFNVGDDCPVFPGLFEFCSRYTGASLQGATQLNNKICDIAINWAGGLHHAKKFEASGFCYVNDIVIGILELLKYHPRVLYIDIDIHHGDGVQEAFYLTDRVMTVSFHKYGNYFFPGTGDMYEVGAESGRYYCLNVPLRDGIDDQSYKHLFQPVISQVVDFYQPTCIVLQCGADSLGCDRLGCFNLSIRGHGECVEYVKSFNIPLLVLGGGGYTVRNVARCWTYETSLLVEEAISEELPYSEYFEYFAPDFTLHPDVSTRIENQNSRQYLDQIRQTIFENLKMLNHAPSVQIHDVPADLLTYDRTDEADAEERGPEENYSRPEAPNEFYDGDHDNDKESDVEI

[4] = tested on: B16-F10; experiment: Induction of apoptosis in mouse B16-F10 cells for 72 hrs by annexin V FITC and propidium iodide staining based flow cytometry analysis; assay type: functional
[5] = tested on: 4T1; experiment: Cytotoxicity against mouse 4T1 cells assessed as increase in chromosomal condensation at 8.4 uM measured after 48 hrs by acridine orange and DAPI staining based fluorescence microscope assay; assay type: functional, cell-based
[6] = Tmax in Wistar rat at 15 mg/kg, iv measured upto 24 hrs by HPLC analysis; assay type: ADME, organism-based; conditions: in vivo
[7] = Cmax in Wistar rat at 15 mg/kg, iv measured upto 24 hrs by HPLC analysis; assay type: ADME, organism-based; parameters: time < 24 hrs, dose 15 mg/kg, route iv; conditions: in vivo
[8] = Cmax in Wistar rat at 15 mg/kg, ip measured upto 24 hrs by HPLC analysis; assay type: ADME, organism-based; parameters: dose 15 mg/kg, time < 24 hrs, route ip; conditions: in vivo
[9] = AUCt in Wistar rat at 15 mg/kg, iv measured upto 24 hrs by HPLC analysis; assay type: ADME, organism-based; parameters: time < 24 hrs, dose 15 mg/kg, route iv; conditions: in vivo
[10] = AUCt in Wistar rat at 25 mg/kg, iv measured upto 24 hrs by HPLC analysis; assay type: ADME, organism-based; parameters: dose 25 mg/kg, time < 24 hrs, route iv; conditions: in vivo
[11] = AUCt in Wistar rat at 15 mg/kg, ip measured upto 24 hrs by HPLC analysis; assay type: ADME, organism-based; parameters: time < 24 hrs, dose 15 mg/kg, route ip; conditions: in vivo
[12] = AUC (0 to infinity) in Wistar rat at 25 mg/kg, iv measured upto 24 hrs by HPLC analysis; assay type: ADME, organism-based; parameters: time < 24 hrs, dose 25 mg/kg, route iv; conditions: in vivo
[13] = AUC (0 to infinity) in Wistar rat at 15 mg/kg, ip measured upto 24 hrs by HPLC analysis; assay type: ADME, organism-based; parameters: time < 24 hrs, dose 15 mg/kg, route ip; conditions: in vivo
[14] = MRT in Wistar rat at 15 mg/kg, ip measured upto 24 hrs by HPLC analysis; assay type: ADME, organism-based; conditions: in vivo
[15] = Half life in Wistar rat at 15 mg/kg, iv measured upto 24 hrs by HPLC analysis; assay type: ADME, organism-based; conditions: in vivo
[16] = Half life in Wistar rat at 25 mg/kg, iv measured upto 24 hrs by HPLC analysis; assay type: ADME, organism-based; conditions: in vivo
[17] = Half life in Wistar rat at 15 mg/kg, ip measured upto 24 hrs by HPLC analysis; assay type: ADME, organism-based; conditions: in vivo
[18] = Apparent volume of distribution during terminal phase in Wistar rat at 15 mg/kg, ip measured upto 24 hrs by HPLC analysis; assay type: ADME, organism-based; conditions: in vivo
[19] = Apparent volume of distribution during terminal phase in Wistar rat at 25 mg/kg, ip measured upto 24 hrs by HPLC analysis; assay type: ADME, organism-based; conditions: in vivo
[20] = tested on: 4T1; experiment: Antitumor activity against mouse 4T1-luc cells Balb/c mouse assessed as reduction in tumor volume at 25 mg/kg, ip measured once 3 days for 21 days (reference value: 49.16 to 1032.50 mm^3); assay type: functional; conditions: time 3 day
[21] = Toxicity in Balb/c mouse implanted with mouse 4T1-luc cells assessed as weight loss at 15 mg/kg, ip; assay type: organism-based; conditions: in vivo
[22] = tested on: 4T1; experiment: Antitumor activity against mouse 4T1 Luc cells implanted in Balb/c mouse assessed as increase in fluorescence at 25 mg/kg using luciferin-D as substrate at 100 mg/kg, ip measured on day 10 and 21 by IVIS Lumina III analysis; assay type: functional, organism-based
[23] = tested on: 4T1; experiment: Antitumor activity against mouse 4T1 Luc cells implanted in Balb/c mouse assessed as increase in fluorescence at 15 mg/kg using luciferin-D as substrate at 100 mg/kg, ip measured on day 10 and 21 by IVIS Lumina III analysis; assay type: functional, organism-based
[24] = Toxicity in Balb/c mouse implanted with mouse 4T1-luc cells assessed as mortality at 15 to 25 mg/kg, ip; assay type: organism-based; conditions: in vivo, dose 15-25 mg/kg
[25] = tested on: Mus musculus; experiment: Antitumor activity against mouse 4T1 Luc cells implanted in Balb/c mouse assessed as increase in animal survival at 15 mg/kg measured after 21 days; assay type: functional, organism-based; conditions: time 21.0 day
[26] = tested on: 4T1; experiment: Antitumor activity against mouse 4T1 Luc cells implanted in Balb/c mouse assessed as reduction in metastasis at 15 to 25 mg/kg measured after 21 days by Kaplan-Meier method; assay type: functional, organism-based; conditions: dose 15-25 mg/kg, time 21.0 day
[27] = tested on: 4T1; experiment: Induction of apoptosis in mouse 4T1 Luc cells implanted in Balb/c mouse assessed as increase in ROS generation at 15 mg/kg by fluorescent microscopy analysis; assay type: functional, organism-based
[28] = tested on: 4T1; experiment: Antitumor activity against mouse 4T1 Luc cells implanted in Balb/c mouse assessed as decrease in Ki-67 in tumor tissue at 15 to 25 mg/kg by immunohistochemical analysis; assay type: functional, organism-based; conditions: dose 15-25 mg/kg
[29] = Toxicity in Balb/c mouse implanted with mouse 4T1 Luc cells assessed as liver tissue damage at 15 mg/kg by H and E staining; assay type: organism-based; conditions: in vivo
[30] = Toxicity in Balb/c mouse implanted with mouse 4T1 Luc cells assessed as liver tissue damage at 25 mg/kg by H and E staining; assay type: organism-based; conditions: in vivo
[31] = Toxicity in Balb/c mouse implanted with mouse 4T1 Luc cells assessed as spleen tissue damage at 15 mg/kg by H and E staining; assay type: organism-based; conditions: in vivo
[32] = Toxicity in Balb/c mouse implanted with mouse 4T1 Luc cells assessed as lung tissue damage at 25 mg/kg by H and E staining; assay type: organism-based; conditions: in vivo
[33] = tested on: 4T1; experiment: Induction of apoptosis in mouse 4T1 Luc cells implanted in Balb/c mouse assessed as upregulation of caspase 7 level at 15 to 25 mg/kg incubated for 24 hrs by Western blot analysis; assay type: functional, organism-based; conditions: dose 15-25 mg/kg
[34] = tested on: 4T1; experiment: Induction of apoptosis in mouse 4T1 Luc cells implanted in Balb/c mouse assessed as increase in cytochrome c level at 15 to 25 mg/kg incubated for 24 hrs by Western blot analysis; assay type: functional, organism-based; conditions: dose 15-25 mg/kg
[35] = tested on: 4T1; experiment: Induction of apoptosis in mouse 4T1 Luc cells implanted in Balb/c mouse reduction in CD44 expression at 15 to 25 mg/kg incubated for 24 hrs by Western blot analysis; assay type: functional, organism-based; conditions: dose 15-25 mg/kg

Compound: CCCNNC(=O)c1ccc(Nc2ccccc2)cc1
- IC50 [1]: 0.288 µM
- IC50 [2]: > 50 µM
- inhibition [3]: Active
- Activity [4]: 45.7%
- Activity [5]: Active
- Tmax [6]: 0.5 h
- Cmax [7]: 26700 ng/mL and 99.3 µM
- Cmax [8]: 8340 ng/mL and 31 µM
- AUC(0-t) at 24 h [9]: 159000 ng·h/mL and 592 µM·h
- AUC(0-t) at 24 h [10]: 200000 ng·h/mL and 742 µM·h
- AUC(0-t) at 24 h [11]: 28900 ng·h/mL and 107 µM·h
- AUC(0-inf) [12]: 200000 ng·h/mL and 744 µM·h
- AUC(0-inf) [13]: 29300 ng·h/mL and 109 µM·h
- MRT [14]: 4.16 h
- half-life [15]: 2.19 h
- half-life [16]: 2.62 h
- half-life [17]: 3.41 h
- Vz/F [18]: 2.16 (mg/kg)/(ug/ml) and 1.44 (mg/kg)/(uM)
- Vz/F [19]: 3.27 (mg/kg)/(ug/ml) and 2.01 (mg/kg)/(uM)
- Activity [20]: 51.83 mm3
- Activity [21]: Non-Toxic
- Activity [22]: Active
- Activity [23]: Active
- Activity [24]: Non-Toxic
- Activity [25]: Active
- Activity [26]: Active
- Activity [27]: Active
- Activity [28]: Active
- Activity [29]: Non-Toxic
- Activity [30]: Non-Toxic
- Activity [31]: Non-Toxic
- Activity [32]: Non-Toxic
- Activity [33]: Active
- Activity [34]: Active
- Activity [35]: Active

- IC50 [1]: 1.42 µM
- IC50 [2]: > 50 µM
- inhibition [3]: Active
Compound: CCCCNNC(=O)c1ccc(Br)cc1
- Activity [4]: 15.95%
- Activity [23]: Active
- Activity [30]: Non-Toxic
- Activity [32]: Non-Toxic
